Experimental data reported in US20080268483A1, “Methods for a Global Assay of Coagulation and Fibrinolysis” (The Regents of the University of Colorado, priority 2004, published 2008).

What was measured:
[1] = test system: standard normal pooled plasma; test: CloFAL assay, altered fibrinolysis studies in treated standard normal pooled plasma; type: biochemical, human; conditions: TAFIa inhibition by PTCI, final plasma concentration 50 μg/mL
Procedure: Frozen plasma aliquots were thawed in a 37° C. water bath for three minutes. […] Plasma samples (fresh or freeze-thawed) were maintained for up to 30 minutes in an ice-water bath until time of assay. […]
The kinetic absorbance data was exported to Microsoft Excel and absorbance measurements at each time point were averaged for the triplicate runs of each specimen. Using the averaged absorbance for the specimen, the maximum amplitude of rise in absorbance was determined (MA=maximum absorbance minus baseline absorbance, where baseline absorbance was obtained by averaging the third through eighth kinetic readings). […]

[2] = test system: standard normal pooled plasma; test: CloFAL assay, heparin studies and heparinase reversal; type: biochemical, human
Source text: The assay described here was modified from those of He et al. (1999) and Smith et al. (2003). As compared to that by Smith et al., which evaluates only fibrinolysis, the CloFAL assay permits assessment of coagulability as well. Furthermore, when compared to the global assay of He et al., the CloFAL assay permits testing with a single reagent to evaluate both coagulation and fibrinolysis, rather than requiring (as does that of He et al.) the preparation of two distinct reagents for separate evaluation of the plasma sample. […] Frozen plasma aliquots were thawed in a 37° C. water bath for three minutes. […]
For each patient sample to be analyzed, 75 μL of freeze-thawed or fresh plasma was dispensed into each of three wells in a round-bottom, 96-well, Nunc assay plate (Fisher Scientific, Santa Clara, Calif.), and then pre-warmed at 37° C. for three minutes. […] The plate was then immediately placed in an eight-channel microplate spectrophotometer (PowerWave HT, Bio-Tek Instruments, Winooski, Vt.) for dual kinetic absorbance measurements at 405 nm and 630 nm at 45-second intervals for 3 hours, following an initial five-second mixing step prior to the first reading. The spectrophotometer interfaced with a computer such that all its operations, including continuous analysis of delta-absorbance (405 nm minus 630 nm) data using KC4™ PC software, may be automated. […]

Substance	FI (fibrinolytic index) [1]	duration of the first phase of decline in turbidity in the CloFAL curve [1]	rise in absorbance of the CloFAL curve ([2]; heparin at 2 U/mL in standard normal pooled plasma)	rise in absorbance of the CloFAL curve ([2]; heparin concentrations of as little as 0.1 U/mL)
PTCI: potato tuber carboxypeptidase inhibitor (Sigma-Aldrich), blocks TAFI activation to enhance fibrinolysis (QQHADPICNKPCKTHDDCSGAWFCQACWNSARTCGPYVG; UniProt P01075 1-39, looked up)	increased	prolonged		
heparin			greatly prevented	prolongation and attenuation
